Changes are numbered by the printed parent chain. pKd: −log10 of the molar value. Values joined by “and” are separate entries in the source; they are usually repeats but may differ in a detail not shown here. Identical values can stand only once. Like-named read-outs stand apart in the source and are kept apart here.
Tests used:
atATC-F161A [1] = biological target: T1, atATC-F161A (Arabidopsis thaliana, UniProt P49077, F161A); test: Colorimetric ATC activity assay, atATC F161A; format: biochemical; conditions: for Activity F161A: 10 mM Asp
T1 construct: 2.6 kDa fusion tag (modified pET28a); made in house; host or cells: E. coli BLR(DE3)-pLysS
T1 sequence (P49077 82-390 F161A): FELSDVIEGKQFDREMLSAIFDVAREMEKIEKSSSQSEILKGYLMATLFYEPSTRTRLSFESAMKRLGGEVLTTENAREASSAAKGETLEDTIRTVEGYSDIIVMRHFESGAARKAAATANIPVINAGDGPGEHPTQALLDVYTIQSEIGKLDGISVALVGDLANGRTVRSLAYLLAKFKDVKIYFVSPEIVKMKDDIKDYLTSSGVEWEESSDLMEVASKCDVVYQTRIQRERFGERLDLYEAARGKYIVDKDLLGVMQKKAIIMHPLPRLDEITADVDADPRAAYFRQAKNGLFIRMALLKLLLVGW
Experimental: (§1) Activity was assayed by a colorimetric method[64] adapted to a 96-well plate format. […] Reagent B is light sensitive and was stored at 4 °C in the dark. The color reagents were gently mixed and stored at 4 °C in the dark until added to the sample. Reaction tubes were closed, boiled at 95 °C for 15 min, and kept in the dark for 30 min before measuring the absorbance at 450 nm in a Tecan infinite m200 microplate reader (Tecan). […] Data analysis was done with GraphPad. […] Protein concentration in the assay was 0.3 µM (0.01 mg ml^−1) both for WT and F161A.

atATC WT = biological target: T2, atATC WT (Arabidopsis thaliana, UniProt P49077); test: Colorimetric ATC activity assay, atATC WT; format: biochemical; conditions: for Activity WT: 10 mM Asp
T2 construct: 2.6 kDa fusion tag (modified pET28a); made in house; host or cells: E. coli BLR(DE3)-pLysS
T2 sequence (P49077 82-390): T1 sequence (P49077 82-390 F161A) with A80F
Experimental: as §1

atATC WT:PALA = biological target: T3, atATC WT:PALA (Arabidopsis thaliana, UniProt P49077); test: ITC, atATC WT prebound to PALA (WT:PALA); format: binding; conditions: for N, number of binding sites per protein trimer according to the ligand binding model / -TΔS Site 2 / ΔG Site 2 / ΔH Site 2 / -TΔS Site 3 / ΔG Site 3 / ΔH Site 3: ITC, protein prebound to PALA; for pKd: read-out: KD Site 2
T3 construct: 2.6 kDa fusion tag (modified pET28a); made in house; host or cells: E. coli BLR(DE3)-pLysS
T3 sequence (P49077 82-390): T1 sequence (P49077 82-390 F161A) with A80F
Experimental: (§2) Experiments were performed in an Auto-iTC200 calorimeter (MicroCal, Malvern-Panalytical) at 25 °C with a 0.2 ml reaction cell and 30–40 µM protein solution (in protomer units) in the cell. […] All solutions were in GF buffer and degassed and mixed in the cell by stirring at 750 rpm. Data analysis was performed with Origin 7 (OriginLab) using a general three-site cooperative and a non-cooperative binding model, restricted to one or two ligand binding sites when convenient[24],[62],[63]. Non-linear least-squares regression analysis was employed to estimate dissociation constants for the interaction of the different ligands with ATC.

[2] = biological target: T4, atATC (Arabidopsis ATC aa 82–390) WT (Arabidopsis thaliana, UniProt P49077); test: Isothermal titration calorimetry (ITC), atATC WT; format: binding; conditions: ITC; for pKd: 25 °C
T4 construct: 2.6 kDa fusion tag (modified pET28a); made in house; host or cells: E. coli BLR(DE3)-pLysS
T4 sequence (P49077 82-390): T1 sequence (P49077 82-390 F161A) with A80F
Experimental: as §2

atATC-F161A [3] = biological target: T1, atATC-F161A; test: biochemical; format: binding
Experimental: as §2

N[C@@H](CC(=O)O)C(=O)O [Asp, aspartate]
K0.5 Asp (atATC-F161A [1]; F161A, Asp variable, 5 mM CP): 3.20 ± 1.03 mM | K0.5 Asp (atATC WT; WT, Asp variable, 5 mM CP): 0.94 mM and 0.94 ± 0.10 mM

NC(=O)OP(=O)(O)O [CP, carbamoyl phosphate]
N, number of binding sites per protein trimer according to the ligand binding model (atATC WT:PALA): 2 | -TΔS Site 2 (atATC WT:PALA): 0.4 kcal/mol | ΔG Site 2 (atATC WT:PALA): -5.3 kcal/mol | ΔH Site 2 (atATC WT:PALA): -5.7 kcal/mol | -TΔS Site 3 (atATC WT:PALA): 0.4 kcal/mol | ΔG Site 3 (atATC WT:PALA): -5.3 kcal/mol | ΔH Site 3 (atATC WT:PALA): -5.7 kcal/mol | pKd (atATC WT:PALA): 3.85 | N, number of binding sites per protein trimer according to the ligand binding model [2]: 3 | pKd ([2]; site 1, read-out: KD Site 1): 4.10 | pKd ([2]; site 2, read-out: KD Site 2): 4.10 | pKd ([2]; site 3, read-out: KD Site 3): 4.10 | -TΔS Site 1 [2]: -2.6 kcal/mol | ΔG Site 1 [2]: -5.6 kcal/mol | ΔH Site 1 [2]: -3.0 kcal/mol | -TΔS Site 2 [2]: -2.6 kcal/mol | ΔG Site 2 [2]: -5.6 kcal/mol | ΔH Site 2 [2]: -3.0 kcal/mol | -TΔS Site 3 ([2]; site 3): -2.6 kcal/mol | ΔG Site 3 ([2]; site 3): -5.6 kcal/mol | Hill-coefficient h of CP initial-rate plot (atATC WT; WT, CP as variable ligand, in the presence of UMP): 2.2 | N, number of binding sites per protein trimer according to the ligand binding model (atATC-F161A [3]; ITC, F161A): 3 | fold higher affinity of F161A than WT (atATC-F161A [3]; ITC, F161A versus WT): ~ 100 fold | -TΔS Site 1 (atATC-F161A [3]; ITC, F161A, site 1): -2.4 kcal/mol | ΔG Site 1 (atATC-F161A [3]; ITC, F161A, site 1): -8.4 kcal/mol | ΔH Site 1 (atATC-F161A [3]; ITC, F161A, site 1): -6.0 kcal/mol | -TΔS Site 2 (atATC-F161A [3]; ITC, F161A, site 2): -2.4 kcal/mol | ΔG Site 2 (atATC-F161A [3]; ITC, F161A, site 2): -8.4 kcal/mol | ΔH Site 2 (atATC-F161A [3]; ITC, F161A, site 2): -6.0 kcal/mol | -TΔS Site 3 (atATC-F161A [3]; ITC, F161A, site 3): -2.4 kcal/mol | ΔG Site 3 (atATC-F161A [3]; ITC, F161A, site 3): -8.4 kcal/mol | ΔH Site 3 (atATC-F161A [3]; ITC, F161A, site 3): -6.0 kcal/mol | pKd (atATC-F161A [3]; KD Site 1, ITC, F161A, site 1): 6.14 | pKd (atATC-F161A [3]; KD Site 2, ITC, F161A, site 2): 6.14 | pKd (atATC-F161A [3]; KD Site 3, ITC, F161A, site 3): 6.14 | pKd (atATC-F161A [3]; KD, ITC, F161A): 6.15

O=c1ccn([C@@H]2O[C@H](COP(=O)(O)O)[C@@H](O)[C@H]2O)c(=O)[nH]1 [UMP, uridine 5-monophosphate]
N, number of binding sites per protein trimer according to the ligand binding model (atATC WT:PALA): 2 | -TΔS Site 2 (atATC WT:PALA): -8.5 kcal/mol | ΔG Site 2 (atATC WT:PALA): -8.1 kcal/mol | ΔH Site 2 (atATC WT:PALA): 0.4 kcal/mol | -TΔS Site 3 (atATC WT:PALA): -8.5 kcal/mol | ΔG Site 3 (atATC WT:PALA): -8.1 kcal/mol | ΔH Site 3 (atATC WT:PALA): 0.4 kcal/mol | pKd (atATC WT:PALA): 5.92 | Activity F161A (atATC-F161A [1]; 0.2 mM UMP, [CP] 0.31 mM): 31.06 nmol / min μg and 26.77 nmol / min μg and 21.39 nmol / min μg | Activity F161A (atATC-F161A [1]; 0.2 mM UMP, [CP] 0.63 mM): 62.38 nmol / min μg and 46.00 nmol / min μg and 48.44 nmol / min μg | Activity F161A (atATC-F161A [1]; 0.2 mM UMP, [CP] 1.25 mM): 61.36 nmol / min μg and 58.95 nmol / min μg and 63.80 nmol / min μg | Activity F161A (atATC-F161A [1]; 0.2 mM UMP, [CP] 2.50 mM): 64.72 nmol / min μg and 56.89 nmol / min μg and 56.14 nmol / min μg | Activity F161A (atATC-F161A [1]; 0.4 mM UMP, [CP] 0.31 mM): 27.07 nmol / min μg and 21.22 nmol / min μg and 30.75 nmol / min μg | Activity F161A (atATC-F161A [1]; 0.4 mM UMP, [CP] 0.63 mM): 50.59 nmol / min μg and 53.67 nmol / min μg and 49.88 nmol / min μg | Activity F161A (atATC-F161A [1]; 0.4 mM UMP, [CP] 1.25 mM): 68.18 nmol / min μg and 58.61 nmol / min μg and 62.41 nmol / min μg | Activity F161A (atATC-F161A [1]; 0.4 mM UMP, [CP] 2.50 mM): 55.88 nmol / min μg and 59.00 nmol / min μg and 63.38 nmol / min μg | inhibition of enzyme activity by UMP (atATC-F161A [1]; F161A): not inhibited | N, number of binding sites per protein trimer according to the ligand binding model [2]: 3 | fold higher affinity for UMP than for CP [2]: ~400 fold | fold higher affinity for UMP than for the transition-state analog (PALA) [2]: 3 fold | pKd ([2]; site 1, read-out: KD Site 1): 6.68 and 6.70 | pKd ([2]; site 2, read-out: KD Site 2): 5.64 | pKd ([2]; site 3, read-out: KD Site 3): 5.80 | fold reduction of the affinity of the other subunits after binding to the first site ([2]; negative cooperativity): 10 fold | -TΔS Site 1 [2]: -6.3 kcal/mol | ΔG Site 1 [2]: -9.1 kcal/mol | ΔH Site 1 [2]: -2.8 kcal/mol | -TΔS Site 2 [2]: -8.9 kcal/mol | ΔG Site 2 [2]: -7.7 kcal/mol | ΔH Site 2 [2]: 1.2 kcal/mol | -TΔS Site 3 ([2]; site 3): -7.4 kcal/mol | ΔG Site 3 ([2]; site 3): -7.9 kcal/mol | ΔH Site 3 ([2]; site 3): -0.5 kcal/mol | Activity WT (atATC WT; 0.1 mM UMP, [CP] 0.31 mM): 4.11 nmol / min μg and 7.63 nmol / min μg and 5.39 nmol / min μg | Activity WT (atATC WT; 0.1 mM UMP, [CP] 1.25 mM): 41.20 nmol / min μg and 48.03 nmol / min μg and 40.64 nmol / min μg | Activity WT (atATC WT; 0.1 mM UMP, [CP] 2.50 mM): 66.92 nmol / min μg and 70.05 nmol / min μg and 71.44 nmol / min μg | Activity WT (atATC WT; 0.1 mM UMP, [CP] 3.00 mM): 72.17 nmol / min μg and 74.13 nmol / min μg and 71.50 nmol / min μg | Activity WT (atATC WT; 0.1 mM UMP, [CP] 4.00 mM): 77.07 nmol / min μg and 76.02 nmol / min μg and 75.78 nmol / min μg | Activity WT (atATC WT; 0.1 mM UMP, [CP] 5.00 mM): 76.47 nmol / min μg and 78.06 nmol / min μg and 76.19 nmol / min μg | Activity WT (atATC WT; 0.4 mM UMP, [CP] 1.25 mM): 9.87 nmol / min μg and 11.15 nmol / min μg and 12.99 nmol / min μg | Activity WT (atATC WT; 0.4 mM UMP, [CP] 2.50 mM): 28.61 nmol / min μg and 31.67 nmol / min μg and 35.52 nmol / min μg | Activity WT (atATC WT; 0.4 mM UMP, [CP] 3.00 mM): 41.63 nmol / min μg and 37.33 nmol / min μg and 40.36 nmol / min μg | Activity WT (atATC WT; 0.4 mM UMP, [CP] 4.00 mM): 48.76 nmol / min μg and 50.91 nmol / min μg and 53.68 nmol / min μg | Activity WT (atATC WT; 0.4 mM UMP, [CP] 5.00 mM): 58.15 nmol / min μg and 59.40 nmol / min μg and 57.60 nmol / min μg | binding detected by ITC (atATC-F161A [3]; F161A, 70 µM UMP at most, 30-40 µM protein): failed to detect the binding

From PMC7878868, “Mechanisms of feedback inhibition and sequential firing of active sites in plant aspartate transcarbamoylase” (Nature Communications, 2021)
